Results reported in the SangsterLogP compilation.

Assay: method code SF-AS, from DOI: 10.1016/0014-5793(90)81139-f, PMID: 2387393
Details: pH 2.0

Row | logD | Structure (SMILES)
1 | 0.27 | COC1=CC(=O)C=CC1=O
2 | -0.05 | COC1=CC(=O)C=C(OC)C1=O
3 | 1.69 | Cc1cc(O)c(C)c(C)c1O
4 | 0.17 | COc1cc(O)cc(OC)c1O
5 | 1.38 | Cc1cc(O)cc(Br)c1O

The next lines start with the compound.

Row | Structure (SMILES) | logD
6 | COC1=C(OC)C(=O)C(C)=C(C)C1=O | 1.26
7 | CC1=CC(=O)C=CC1=O | 0.67
8 | COc1cc(O)ccc1O | 0.47
9 | COc1c(O)cc(C)c(O)c1OC | 1.02
10 | COc1c(O)c(C)c(C)c(O)c1OC | 1.6
11 | CC1=CC(=O)C=C(Br)C1=O | 1.21
12 | COc1c(O)c(OC)c(OC)c(O)c1OC | 0.39
